{"source": "patent US20230026869A1", "about": "“CRYSTAL FORM OF NUCLEOPROTEIN INHIBITOR AND USE THEREOF” (CHIA TAI TIANQING PHARMACEUTICAL GROUP CO., LTD., priority 2019, published 2023)", "key": {"CYP1A2": {"target": "T1, CYP1A2 (Homo sapiens, UniProt P05177)", "T1 construct": "from tissue; host or cells: human liver microsomes", "T1 sequence (P05177 1-516)": "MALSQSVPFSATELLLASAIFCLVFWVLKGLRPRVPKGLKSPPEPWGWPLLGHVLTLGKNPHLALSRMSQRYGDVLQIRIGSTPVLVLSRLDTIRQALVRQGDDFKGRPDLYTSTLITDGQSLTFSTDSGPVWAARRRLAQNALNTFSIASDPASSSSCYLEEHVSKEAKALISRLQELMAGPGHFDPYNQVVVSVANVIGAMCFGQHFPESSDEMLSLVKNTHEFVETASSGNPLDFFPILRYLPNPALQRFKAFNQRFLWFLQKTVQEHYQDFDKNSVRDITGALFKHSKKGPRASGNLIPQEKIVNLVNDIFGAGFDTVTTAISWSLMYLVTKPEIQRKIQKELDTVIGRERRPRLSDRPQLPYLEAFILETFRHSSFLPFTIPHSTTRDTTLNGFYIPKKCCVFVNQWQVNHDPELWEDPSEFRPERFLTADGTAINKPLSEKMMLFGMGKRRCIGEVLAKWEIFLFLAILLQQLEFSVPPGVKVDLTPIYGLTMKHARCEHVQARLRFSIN", "assay": "Inhibition of human liver microsomal cytochrome P450 isoenzyme CYP1A2", "format": "in vitro ADME", "details": "human liver microsomes", "description": "(§1) Objective: The inhibitory effect of the test compound on the activity of human liver microsomal cytochrome P450 isoenzymes (CYP1A2, CYP2C9, CYP2C19, CYP2D6 and CYP3A4) was determined. […]"}, "CYP3A4": {"target": "T2, CYP3A4 (Homo sapiens, UniProt P08684)", "T2 construct": "from tissue; host or cells: human liver microsomes", "T2 sequence (P08684 whole entry)": "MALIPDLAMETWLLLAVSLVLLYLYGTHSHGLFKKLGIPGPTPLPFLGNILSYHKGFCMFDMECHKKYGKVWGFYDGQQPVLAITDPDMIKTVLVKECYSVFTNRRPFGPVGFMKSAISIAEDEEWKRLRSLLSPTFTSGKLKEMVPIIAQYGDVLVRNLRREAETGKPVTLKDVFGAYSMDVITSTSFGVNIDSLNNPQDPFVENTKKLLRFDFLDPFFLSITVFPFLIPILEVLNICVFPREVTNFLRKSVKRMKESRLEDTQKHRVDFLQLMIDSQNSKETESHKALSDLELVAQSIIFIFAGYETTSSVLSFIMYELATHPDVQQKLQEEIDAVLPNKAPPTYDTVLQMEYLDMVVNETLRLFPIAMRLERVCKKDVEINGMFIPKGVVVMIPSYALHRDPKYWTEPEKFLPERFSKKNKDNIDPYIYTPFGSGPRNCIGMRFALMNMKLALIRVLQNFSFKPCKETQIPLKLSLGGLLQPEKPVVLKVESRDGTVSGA", "assay": "Inhibition of human liver microsomal cytochrome P450 isoenzyme CYP3A4", "format": "in vitro ADME", "details": "human liver microsomes", "description": "as §1"}, "[1]": {"assay": "Pharmacokinetic study in Balb/c mice by oral administration and intravenous injection", "format": "in vivo", "details": "mouse, Balb/c female mice, plasma", "description": "Pharmacokinetic Study of the Test Compound in Balb/c Mice by Oral Administration and Intravenous Injection: The test compound was mixed with a solution containing dimethyl sulfoxide (101), polyethylene glycol 400 (600%) and water (300), and the mixture was vortexed and sonicated to prepare a 0.2 mg/mL clear solution, which was filtered through a millipore filter for later use. Balb/c female mice aged 7 to 10 weeks were intravenously injected with the candidate compound solution at a dose of 1 mg/kg. The test compound was mixed with an aqueous solution containing 10% polyoxyethylene stearate, and the mixture was vortexed and sonicated to prepare a 0.3 mg/mL clear solution for later use. Balb/c female mice aged 7 to 10 weeks were orally administered with the candidate compound solution at a dose of 3 mg/kg. Whole-blood was collected and plasma was prepared. Drug concentration was analyzed by LC-MS/MS and pharmacokinetic parameters were calculated with Phoenix WinNonlin software."}, "[2]": {"assay": "Liver-to-blood ratio in Balb/c mice orally administered with the test compound", "format": "in vivo", "details": "Balb/c female mice, oral administration, 3 mg/kg", "description": "Experiment on the Liver-to-Blood Ratio in Balb/c Mice Orally Administered with the Test Compound The compound of formula (I) was mixed with an aqueous solution containing […] polyethylene glycol-15 hydroxystearate, and the mixture was vortexed and sonicated to prepare a 0.3 mg/mL clear solution for later use. Balb/c female mice aged 7 to 10 weeks were orally administered with the candidate compound solution at a dose of 3 mg/kg. Whole blood at a certain time point was collected and plasma was prepared. Liver tissues at the corresponding time point were collected to prepare a tissue homogenate. Drug concentration was analyzed by LC-MS/MS and pharmacokinetic parameters were calculated with Phoenix WinNonlin software."}}}
{"compound": "CC1(NC(=O)C(=O)c2c(Cl)c(C(=O)Nc3cc(F)c(F)c(F)c3)c3n2CCC3)CCC(CC(=O)O)CC1", "note": "(stereo not shown) [Compound of formula (I)]", "values": [{"measurement": "IC50", "setting": "CYP1A2", "result": "> 50", "unit": "µM"}, {"measurement": "IC50", "setting": "CYP3A4", "result": "> 50", "unit": "µM"}, {"measurement": "AUC", "setting": "[1]; 3 mg/kg, PO 3 mpk, read-out: Area under the plasma concentration-time curve AUC", "result": 2.27, "unit": "µM·h"}, {"measurement": "Cmax", "setting": "[1]; 3 mg/kg, PO 3 mpk, read-out: Peak concentration Cmax", "result": 1480, "unit": "nM"}, {"measurement": "Tmax", "setting": "[1]; 3 mg/kg, PO 3 mpk, read-out: Peak time Tmax", "result": 0.5, "unit": "h"}, {"measurement": "bioavailability", "setting": "[1]; 3 mg/kg, PO 3 mpk vs IV 1 mg/kg, read-out: Bioavailability (F %)", "result": 51, "unit": "%"}, {"measurement": "Vd", "setting": "[1]; IV 1 mg/kg, read-out: Apparent volume of distribution (Vdss)", "result": 3.1, "unit": "L/kg"}, {"measurement": "AUC(0-t)", "setting": "[1]; IV 1 mg/kg, read-out: Area under the plasma concentration-time curve AUC0-24 h", "result": 1.49, "unit": "µM·h"}, {"measurement": "clearance", "setting": "[1]; IV 1 mg/kg, read-out: Clearance (CL)", "result": 20, "unit": "mL/min/kg"}, {"measurement": "half-life", "setting": "[1]; IV 1 mg/kg, read-out: Half-life T1/2 (converted)", "result": 1.95, "unit": "h"}, {"measurement": "AUC0-last", "setting": "[2]; Liver", "result": 86036, "unit": "nmol·h/kg"}, {"measurement": "Kp", "setting": "[2]; mouse, liver / plasma, read-out: AUC ratio (L/P) Liver/plasma exposure ratio", "result": 24.7}, {"measurement": "AUC(0-t)", "setting": "[2]; mouse, Plasma", "result": 3.48, "unit": "µM·h"}]}
